Test results taken from ChEMBL document CHEMBL1152560, “Substituted 2-arylbenzothiazoles as kinase inhibitors: hit-to-lead optimization” (Bioorg Med Chem, 2009).

Tests used:
[1] = molecular target: SRSF protein kinase 1 (Homo sapiens) (UniProt Q96SB4); experiment: Residual activity of SRPK1 at 10 uM by microplate scintillation counting
[2] = molecular target: CDK6/cyclin D1 (Homo sapiens) (UniProt P24385+Q00534); experiment: Residual activity of CDK6/Cyclin D1 at 0.1 uM by microplate scintillation counting; type: protein-complex assay
[3] = molecular target: T1, Ephrin type-A receptor 8 (Homo sapiens) (UniProt P29322); experiment: Residual activity of EPHA8 at 0.1 uM by microplate scintillation counting
T1 sequence (whole entry): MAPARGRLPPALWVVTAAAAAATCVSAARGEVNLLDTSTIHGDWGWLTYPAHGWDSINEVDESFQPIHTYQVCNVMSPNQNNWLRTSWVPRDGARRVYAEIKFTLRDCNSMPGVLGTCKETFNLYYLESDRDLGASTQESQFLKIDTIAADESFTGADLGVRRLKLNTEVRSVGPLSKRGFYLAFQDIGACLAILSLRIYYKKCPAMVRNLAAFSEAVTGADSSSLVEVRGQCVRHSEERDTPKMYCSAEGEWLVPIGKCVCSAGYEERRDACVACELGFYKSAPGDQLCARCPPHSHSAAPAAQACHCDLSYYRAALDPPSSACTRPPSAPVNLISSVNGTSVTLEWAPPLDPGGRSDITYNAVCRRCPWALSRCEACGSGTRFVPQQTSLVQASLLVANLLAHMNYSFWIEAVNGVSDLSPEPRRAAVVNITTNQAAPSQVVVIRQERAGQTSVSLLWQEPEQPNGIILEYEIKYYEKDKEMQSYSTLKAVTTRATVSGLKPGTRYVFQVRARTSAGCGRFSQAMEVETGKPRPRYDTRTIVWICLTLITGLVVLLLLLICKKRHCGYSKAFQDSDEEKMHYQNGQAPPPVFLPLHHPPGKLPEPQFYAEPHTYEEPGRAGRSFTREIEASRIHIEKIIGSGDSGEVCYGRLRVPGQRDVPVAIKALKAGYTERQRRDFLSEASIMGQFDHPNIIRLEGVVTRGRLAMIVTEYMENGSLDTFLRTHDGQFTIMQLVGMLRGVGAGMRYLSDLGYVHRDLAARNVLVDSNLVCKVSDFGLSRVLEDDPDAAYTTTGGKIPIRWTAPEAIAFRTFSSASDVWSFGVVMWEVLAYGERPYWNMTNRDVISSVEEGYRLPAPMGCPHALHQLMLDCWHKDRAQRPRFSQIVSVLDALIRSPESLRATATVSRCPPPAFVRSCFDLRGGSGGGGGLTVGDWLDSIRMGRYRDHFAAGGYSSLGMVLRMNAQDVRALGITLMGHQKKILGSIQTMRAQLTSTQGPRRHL

[4] = molecular target: Activated CDC42 kinase 1 (Homo sapiens) (UniProt Q07912); experiment: Residual activity of ACK1 at 10 uM by microplate scintillation counting
[5] = molecular target: Serine/threonine-protein kinase PAK 3 (Homo sapiens) (UniProt O75914); experiment: Residual activity of PAK3 at 1 uM by microplate scintillation counting
[6] = molecular target: Mitogen-activated protein kinase kinase kinase 14 (Homo sapiens) (UniProt Q99558); experiment: Residual activity of NIK at 1 uM by microplate scintillation counting
[7] = molecular target: CDK1/Cyclin A (Homo sapiens) (UniProt P06493+P20248); experiment: Residual activity of CDK1/Cyclin A at 10 uM by microplate scintillation counting; type: protein-complex assay
[8] = molecular target: CDK9/cyclin T1 (Homo sapiens) (UniProt O60563+P50750); experiment: Residual activity of CDK9/Cyclin T at 0.1 uM by microplate scintillation counting; type: protein-complex assay
[9] = molecular target: Protein kinase C delta type (Homo sapiens) (UniProt Q05655); experiment: Residual activity of PKCdelta at 0.1 uM by microplate scintillation counting
[10] = molecular target: Tyrosine-protein kinase CSK (Homo sapiens) (UniProt P41240); experiment: Residual activity of CSK at 0.1 uM by microplate scintillation counting
[11] = molecular target: Vascular endothelial growth factor receptor 3 (Homo sapiens, UniProt P35916); experiment: Residual activity of VEGFR3 at 0.1 uM by microplate scintillation counting
[12] = molecular target: T2, Mitogen-activated protein kinase 12 (Homo sapiens) (UniProt P53778); experiment: Residual activity of p38-gamma at 10 uM by microplate scintillation counting
T2 sequence (whole entry): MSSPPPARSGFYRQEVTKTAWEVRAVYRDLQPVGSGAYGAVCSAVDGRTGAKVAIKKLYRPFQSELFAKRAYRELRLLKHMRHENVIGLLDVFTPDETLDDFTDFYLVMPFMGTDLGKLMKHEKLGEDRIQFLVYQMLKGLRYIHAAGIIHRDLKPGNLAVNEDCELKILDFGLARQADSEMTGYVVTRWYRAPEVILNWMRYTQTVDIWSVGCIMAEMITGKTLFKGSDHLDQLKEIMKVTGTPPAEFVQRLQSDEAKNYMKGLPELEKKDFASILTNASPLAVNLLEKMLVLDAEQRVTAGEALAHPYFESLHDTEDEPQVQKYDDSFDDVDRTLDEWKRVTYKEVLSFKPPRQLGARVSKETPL

[13] = molecular target: Ephrin type-A receptor 7 (Homo sapiens) (UniProt Q15375); experiment: Residual activity of EPHA7 at 0.1 uM by microplate scintillation counting
[14] = molecular target: Casein kinase I isoform epsilon (Homo sapiens) (UniProt P49674); experiment: Residual activity of CK1epsilon at 10 uM by microplate scintillation counting
[15] = molecular target: Fibroblast growth factor receptor 1 (Homo sapiens) (UniProt P11362); experiment: Residual activity of wild type FGF-R1 at 10 uM by microplate scintillation counting

Mitogen-activated protein kinase kinase kinase 14 (Homo sapiens), sequence (Q99558 whole entry, looked up): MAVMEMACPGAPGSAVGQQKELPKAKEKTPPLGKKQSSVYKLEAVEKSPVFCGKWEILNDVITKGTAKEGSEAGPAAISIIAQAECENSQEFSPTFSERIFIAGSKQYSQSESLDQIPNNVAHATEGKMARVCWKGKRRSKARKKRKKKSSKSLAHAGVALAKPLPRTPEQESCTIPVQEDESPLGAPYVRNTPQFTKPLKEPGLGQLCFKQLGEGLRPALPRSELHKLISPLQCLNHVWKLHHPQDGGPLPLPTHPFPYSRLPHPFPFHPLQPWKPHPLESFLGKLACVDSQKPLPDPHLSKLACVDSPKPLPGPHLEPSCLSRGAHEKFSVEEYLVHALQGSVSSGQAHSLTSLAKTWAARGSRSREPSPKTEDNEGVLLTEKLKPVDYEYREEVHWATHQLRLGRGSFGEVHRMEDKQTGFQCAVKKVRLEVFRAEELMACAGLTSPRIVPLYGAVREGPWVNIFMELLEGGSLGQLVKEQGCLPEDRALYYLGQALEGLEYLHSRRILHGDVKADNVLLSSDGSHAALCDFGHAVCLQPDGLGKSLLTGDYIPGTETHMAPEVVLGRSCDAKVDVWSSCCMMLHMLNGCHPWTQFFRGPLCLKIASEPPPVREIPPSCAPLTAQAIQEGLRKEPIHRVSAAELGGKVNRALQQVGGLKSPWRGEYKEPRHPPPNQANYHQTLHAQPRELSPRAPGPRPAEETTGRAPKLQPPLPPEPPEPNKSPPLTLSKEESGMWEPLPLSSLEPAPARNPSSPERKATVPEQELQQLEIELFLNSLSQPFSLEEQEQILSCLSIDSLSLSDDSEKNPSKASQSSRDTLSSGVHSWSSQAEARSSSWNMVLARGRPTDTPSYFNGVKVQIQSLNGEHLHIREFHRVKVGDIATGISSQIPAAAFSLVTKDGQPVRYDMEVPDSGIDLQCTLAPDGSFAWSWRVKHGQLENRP
Ephrin type-A receptor 7 (Homo sapiens), sequence (Q15375 28-998 limits assumed): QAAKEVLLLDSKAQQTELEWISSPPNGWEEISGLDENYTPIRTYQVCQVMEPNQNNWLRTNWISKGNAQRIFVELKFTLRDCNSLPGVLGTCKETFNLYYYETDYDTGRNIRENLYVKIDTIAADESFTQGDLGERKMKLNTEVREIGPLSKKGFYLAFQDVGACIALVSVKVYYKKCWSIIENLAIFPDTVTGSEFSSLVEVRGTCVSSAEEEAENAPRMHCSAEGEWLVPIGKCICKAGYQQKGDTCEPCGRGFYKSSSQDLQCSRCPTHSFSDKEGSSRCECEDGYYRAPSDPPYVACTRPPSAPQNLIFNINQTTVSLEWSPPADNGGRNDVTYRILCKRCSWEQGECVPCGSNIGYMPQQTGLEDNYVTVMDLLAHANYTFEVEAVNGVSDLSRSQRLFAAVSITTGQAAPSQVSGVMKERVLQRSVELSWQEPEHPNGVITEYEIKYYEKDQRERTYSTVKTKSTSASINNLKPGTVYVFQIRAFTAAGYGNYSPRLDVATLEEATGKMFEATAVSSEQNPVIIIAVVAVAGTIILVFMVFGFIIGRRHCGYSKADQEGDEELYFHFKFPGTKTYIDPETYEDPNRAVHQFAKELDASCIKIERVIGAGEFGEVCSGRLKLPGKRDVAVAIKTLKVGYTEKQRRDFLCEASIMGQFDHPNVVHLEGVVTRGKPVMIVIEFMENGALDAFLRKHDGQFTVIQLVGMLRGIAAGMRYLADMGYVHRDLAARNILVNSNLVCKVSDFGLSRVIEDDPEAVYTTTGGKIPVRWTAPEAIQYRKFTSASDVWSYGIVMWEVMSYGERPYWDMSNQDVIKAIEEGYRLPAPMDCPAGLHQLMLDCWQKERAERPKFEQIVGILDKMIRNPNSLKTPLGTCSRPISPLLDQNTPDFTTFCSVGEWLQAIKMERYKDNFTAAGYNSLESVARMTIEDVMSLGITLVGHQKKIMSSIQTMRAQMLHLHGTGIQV
Casein kinase I isoform epsilon (Homo sapiens), sequence (P49674 whole entry, looked up, canonical isoform): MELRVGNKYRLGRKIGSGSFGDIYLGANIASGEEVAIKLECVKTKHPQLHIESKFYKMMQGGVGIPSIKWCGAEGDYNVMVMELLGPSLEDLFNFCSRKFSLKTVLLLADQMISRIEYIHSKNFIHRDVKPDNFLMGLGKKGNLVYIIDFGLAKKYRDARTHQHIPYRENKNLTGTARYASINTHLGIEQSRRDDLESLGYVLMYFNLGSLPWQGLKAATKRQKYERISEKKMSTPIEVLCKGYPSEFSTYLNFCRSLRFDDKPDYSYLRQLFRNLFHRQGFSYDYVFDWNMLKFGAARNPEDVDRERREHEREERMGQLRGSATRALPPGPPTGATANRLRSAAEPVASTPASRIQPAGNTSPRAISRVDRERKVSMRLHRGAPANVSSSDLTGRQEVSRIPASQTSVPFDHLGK
CDK1/Cyclin A (Homo sapiens), sequence (P06493 whole entry, looked up): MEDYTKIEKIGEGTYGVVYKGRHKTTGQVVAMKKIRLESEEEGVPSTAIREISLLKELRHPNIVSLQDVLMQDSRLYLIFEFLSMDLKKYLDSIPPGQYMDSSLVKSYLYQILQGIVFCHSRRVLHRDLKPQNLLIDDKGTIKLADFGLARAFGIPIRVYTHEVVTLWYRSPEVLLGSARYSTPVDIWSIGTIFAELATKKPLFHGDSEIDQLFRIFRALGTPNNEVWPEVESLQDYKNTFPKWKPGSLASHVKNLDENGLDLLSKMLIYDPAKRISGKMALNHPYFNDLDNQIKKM
CDK1/Cyclin A (Homo sapiens), sequence (P20248 whole entry, looked up): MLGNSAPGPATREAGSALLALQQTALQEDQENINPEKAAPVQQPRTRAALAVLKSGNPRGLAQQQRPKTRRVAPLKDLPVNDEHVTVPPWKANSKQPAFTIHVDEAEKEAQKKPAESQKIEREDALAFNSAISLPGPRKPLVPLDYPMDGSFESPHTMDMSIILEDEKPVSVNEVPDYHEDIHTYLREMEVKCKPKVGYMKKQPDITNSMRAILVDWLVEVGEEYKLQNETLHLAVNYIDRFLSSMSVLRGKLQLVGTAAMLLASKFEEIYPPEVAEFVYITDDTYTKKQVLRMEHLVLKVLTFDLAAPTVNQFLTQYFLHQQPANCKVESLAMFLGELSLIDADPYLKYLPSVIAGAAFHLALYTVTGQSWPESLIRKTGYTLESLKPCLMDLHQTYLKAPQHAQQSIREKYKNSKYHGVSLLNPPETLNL
Activated CDC42 kinase 1 (Homo sapiens), sequence (Q07912 whole entry, looked up): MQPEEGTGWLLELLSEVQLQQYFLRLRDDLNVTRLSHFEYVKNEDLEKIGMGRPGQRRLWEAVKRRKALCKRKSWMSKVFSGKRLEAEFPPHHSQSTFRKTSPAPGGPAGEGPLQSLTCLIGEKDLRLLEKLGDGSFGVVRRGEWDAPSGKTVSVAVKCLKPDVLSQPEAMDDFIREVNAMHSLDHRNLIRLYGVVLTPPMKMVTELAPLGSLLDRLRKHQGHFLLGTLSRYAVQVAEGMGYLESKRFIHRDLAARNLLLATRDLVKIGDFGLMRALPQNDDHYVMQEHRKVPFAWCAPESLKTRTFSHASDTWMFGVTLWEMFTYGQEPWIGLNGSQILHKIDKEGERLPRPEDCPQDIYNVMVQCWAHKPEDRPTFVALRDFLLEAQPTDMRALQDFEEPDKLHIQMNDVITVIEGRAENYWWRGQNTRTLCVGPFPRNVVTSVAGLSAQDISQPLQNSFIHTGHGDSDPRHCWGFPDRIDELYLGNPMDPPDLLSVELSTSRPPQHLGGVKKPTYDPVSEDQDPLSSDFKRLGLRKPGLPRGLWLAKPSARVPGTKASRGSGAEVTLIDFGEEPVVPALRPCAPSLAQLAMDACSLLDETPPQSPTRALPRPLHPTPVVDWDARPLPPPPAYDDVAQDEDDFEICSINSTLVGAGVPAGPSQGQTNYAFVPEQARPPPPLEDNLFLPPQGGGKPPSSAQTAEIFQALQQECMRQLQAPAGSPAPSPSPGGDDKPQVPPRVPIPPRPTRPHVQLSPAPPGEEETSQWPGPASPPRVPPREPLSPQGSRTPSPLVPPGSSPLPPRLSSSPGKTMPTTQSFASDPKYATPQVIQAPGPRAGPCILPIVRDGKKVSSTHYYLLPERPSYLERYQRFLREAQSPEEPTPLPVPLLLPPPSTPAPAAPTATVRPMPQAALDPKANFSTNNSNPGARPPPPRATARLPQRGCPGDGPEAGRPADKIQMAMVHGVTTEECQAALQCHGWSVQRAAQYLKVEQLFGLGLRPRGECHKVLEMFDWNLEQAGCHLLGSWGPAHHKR
Protein kinase C delta type (Homo sapiens), sequence (Q05655 whole entry, looked up): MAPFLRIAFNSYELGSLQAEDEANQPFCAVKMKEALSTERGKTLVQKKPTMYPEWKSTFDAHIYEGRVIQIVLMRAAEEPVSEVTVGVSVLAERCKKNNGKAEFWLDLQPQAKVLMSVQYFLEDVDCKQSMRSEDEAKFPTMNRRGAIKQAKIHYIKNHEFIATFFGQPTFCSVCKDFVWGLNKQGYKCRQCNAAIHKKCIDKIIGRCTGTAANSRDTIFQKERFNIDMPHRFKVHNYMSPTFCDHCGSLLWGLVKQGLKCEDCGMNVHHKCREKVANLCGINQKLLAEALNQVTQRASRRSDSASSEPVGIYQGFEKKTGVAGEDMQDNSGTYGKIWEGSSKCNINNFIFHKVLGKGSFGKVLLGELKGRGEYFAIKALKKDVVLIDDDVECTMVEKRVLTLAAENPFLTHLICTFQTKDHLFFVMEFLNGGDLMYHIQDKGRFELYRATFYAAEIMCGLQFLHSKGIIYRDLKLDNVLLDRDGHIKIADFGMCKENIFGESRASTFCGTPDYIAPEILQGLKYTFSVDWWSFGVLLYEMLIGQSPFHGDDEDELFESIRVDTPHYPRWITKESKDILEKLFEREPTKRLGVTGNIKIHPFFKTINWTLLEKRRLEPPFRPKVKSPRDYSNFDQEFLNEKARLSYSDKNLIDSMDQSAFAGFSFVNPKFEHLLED

residual activity [1] [%]	residual activity [2] [%]	residual activity [3] [%]	residual activity [4] [%]	residual activity [5] [%]	residual activity [6] [%]	residual activity [7] [%]	residual activity [8] [%]	residual activity [9] [%]	residual activity [10] [%]	residual activity [11] [%]	residual activity [12] [%]	residual activity [13] [%]	residual activity [14] [%]	residual activity [15] [%]	Compound
107	91	108	31	101	93	117	94	88	111	57	292	111	147	124	COc1cc2c(Oc3ccc(-c4nc5ccccc5s4)cc3)ncnc2cc1OCCCN1CCCC1
98	99	109	35	85	85	129	101	93	120	60	136	88	156	157	COc1cc2c(Oc3ccc(-c4nc5ccccc5s4)cc3)ncnc2cc1OCCCN1CCN(C)CC1
64	107	101	40	95	88	112	91	95	104	64	207	103	97	47	COc1cc2c(Oc3ccc(-c4nc5ccccc5s4)cc3F)ncnc2cc1OCCCN1CCN(C)CC1
